Laboratory results: patent US20090076029A1 (Palatin Technologies, Inc., priority 2007, published 2009)
Where two headings read alike, the source gives them in different places. Square brackets hold non-standard residues; d marks the D form. * marks the point of attachment. dPhe(4-Cl) = N[C@H](Cc1ccc(Cl)cc1)C(=O)O; Heptanoyl = CCCCCCC(=O)*; Bn = c1ccc(C*)cc1

Key:
[1] = target: T1, hMC3-R; assay: Competitive inhibition assay using [I125]-NDP-α-MSH, hMC3-R membranes; format: binding, human; conditions: read-out: Ki (nM) (NDP-α-MSH) MC3-R
T1 construct: expressed in transfected cells; host or cells: HEK-293
Experimental: (§1) Competitive inhibition assay using [1125]-NDP-α-MSH. A competitive inhibition binding assay was conducted using membranes prepared from HEK-293 cells transfected to express hMC3-R, hMC4-R or hMC5-R, and from B-16 mouse melanoma cells (containing MC1-R) using 0.2 to 0.4 nM [I^125]-NDP-α-MSH (New England Nuclear) in 50 mM HEPES buffer containing 1 mM MgCl2, 2 mM CaCl2, and 5 mM KCl, at pH 7.2. In certain experiments, HEK-293 cells transfected to express hMC1-R were also employed. The assay tube also contained a chosen concentration of the test compound of this invention, typically a 1 μM concentration, for determining inhibition of the binding of [^1125]-NDP-α-MSH to its receptor. Non-specific binding was measured by inhibition of binding of [I^125]-NDP-α-MSH in the assay with the presence of 1 μM α-MSH.
(§2) The assay mixture was incubated for 90 minutes at room temperature, then filtered and the membranes washed three times with ice cold buffer. The filter was dried and counted in a gamma counter for remaining radioactivity bound to the membranes. 100% specific binding was defined as the difference in radioactivity (cpm) bound to cell membranes in the absence and presence of 1 μM α-MSH. The cpm obtained in presence of test compounds were normalized with respect to 100% specific binding to determine the percent inhibition of [125]-NDP-α-MSH binding. Each assay was conducted in triplicate and the actual mean values are described, with results less than 0% reported as 0%.

[2] = target: T2, hMC4-R; assay: Competitive inhibition assay using [I125]-NDP-α-MSH, hMC4-R membranes; format: binding, human; conditions: for attenuation of binding of α-MSH and AgRP to MC4-R: both ligands (NDP-α-MSH and AgRP), summary
T2 construct: expressed in transfected cells; host or cells: HEK-293
Experimental: as §1, §2

[3] = target: T3, hMC5-R; assay: Competitive inhibition assay using [I125]-NDP-α-MSH, hMC5-R membranes; format: binding, human; conditions: read-out: Ki (nM) (NDP-α-MSH) MC5-R
T3 construct: expressed in transfected cells; host or cells: HEK-293
Experimental: as §1, §2

[4] = system: T2, hMC4-R; format: binding, human; conditions: for Inhibition at 1 μM (AgRP) MC4-R: 1 μM compound
Experimental: Competitive binding assay using [I^125]-AgRP (83-132). Competitive binding studies using [I^125]-AgRP (83-132) were carried out on membranes isolated from cells expressing hMC4-R. The assay was performed in 96 well GF/B Millipore multiscreen filtration plates (MAFB NOB10) pre-coated with 0.5% bovine serum albumin (Fraction V). The assay mixture contained 25 mM HEPES buffer (pH 7.5) with 100 mM NaCl, 2 mM CaCl2, 2 mM MgCl2, 0.3 mM 1,10-phenanthroline, 0.5% bovine serum albumin, cell membranes, radioligand [I^125]-AgRP (83-132) (NEN), and increasing concentrations of compounds in a total volume of 200 μL. Binding was measured at radioligand concentrations of 0.2 nM. After incubating for 1 hour at 37° C., the reaction mixture was filtered and washed with an assay buffer containing 500 mM NaCl. The dried discs were punched out from the plate and counted on a gamma counter. Care was taken to limit the specific binding of the ligand to an amount not exceeding 10% of the counts added to the reaction mixture. Data were analyzed using the Prism Graph-Pad curve fitting software.

[5] = system: T2, hMC4-R; assay: cAMP functional assay in HEK-293 cells expressing MC4-R (agonist, neutral antagonist/Schild); format: cell-based, human; conditions: for functional status at MC4-R: mostly at 1 μM; for intrinsic activity at MC4-R: NDP-α-MSH maximal stimulation = 1.0
Experimental: General method for EC50 determination in functional activity assay. Functional evaluation of compounds at melanocortin receptors was performed by measuring the accumulation of intracellular cAMP in HEK-293 cells expressing hMC3-R, hMC4-R or hMC5-R, and in B-16 mouse melanoma cells expressing MC1-R. Cells suspended in Earle's Balanced Salt Solution containing 10 mM HEPES (pH 7.5), 5 mM MgCl2, 1 mM glutamine, 0.1% albumin and 0.6 mM 3-isobutyl-1-methyl-xanthine, a phosphodiesterase inhibitor, were plated in 96 well plates at a density of 0.5×10^5 cells per well. Cells were incubated with the test compounds in the presence or absence of α-MSH for 1 hour at 37° C. cAMP levels in the cell lysates were measured using an EIA kit (Amersham). Data analysis and EC50 values were determined using nonlinear regression analysis with Prism Graph-Pad software.
Functional status. The agonist/antagonist status with respect to MC1-R, MC-3R, MC4-R and MC5-R of certain compounds of the invention was determined.
Assay for agonist. Evaluation of the molecules to elicit a functional response in HEK-293 cells expressing MC4-R was accomplished by measuring the accumulation of intracellular cAMP following treatment. Confluent HEK-293 cells expressing MC4-R were detached by enzyme free cell suspension buffer. Cells were suspended in Earle's Balanced Salt Solution containing 10 mM HEPES (pH 7.5), 1 mM MgCl2, 1 mM glutamine, 0.5% albumin and 0.3 mM 3-isobutyl-1-methyl-xanthine (IBMX), a phosphodiesterase inhibitor. The cells were plated in 96 well plates at a density of 0.5×10^5 cells per well and pre-incubated for 30 minutes. The cells were then challenged with the test compounds dissolved in DMSO at a concentration range of 0.05-5000 nM in a total assay volume of 200 μL for 1 hour at 37° C. The concentration of DMSO was always held at 1% in the assay mixture. NDP-α-MSH was used as the reference agonist. At the end of the incubation period the cells were disrupted by the addition of 50 μL of lysis buffer from a cAMP EIA kit (Amersham). Complete rupture of the cells was obtained by pipetting the cells multiple times. cAMP levels in the cell lysates were measured after appropriate dilution using the EIA kit (Amersham) method. Data analysis and EC50 values were determined by using nonlinear regression analysis with Prism Graph-Pad software. […] FIG. 1 illustrates typical results, showing the stimulation of cAMP using the compound of Example 11 in HEK-293/MC4-R cells with comparison to NDP-α-MSH.
Assay for Neutral Antagonist. Compounds with a high affinity for binding to MC4-R membranes but with less potency in terms of cAMP accumulation (EC50>1000 nM) and low response ratio (<0.1) were analyzed for their ability to antagonize the stimulatory effect of the agonist NDP-α-MSH. These studies were carried out in HEK-293 cells expressing MC4-R. Cells were incubated with the compounds in the presence of the agonist NDP-α-MSH and the extent of antagonism was measured by the decrease in intracellular cAMP concentrations. Screening the compounds for antagonist activity was performed at a single concentration of NDP-α-MSH (1.0 nM) over a compound concentration range of 0.5-5000 nM.
Experimental details were similar to the analysis for agonistic activity described above. Briefly, cells were pre-incubated for 30 minutes with the test compounds at concentrations between 0.5 nM and 5000 nM. The cells were then stimulated with NDP-α-MSH at a concentration of 1 nM for 1 hour. For Schild's analysis, the interactions were studied using at least 3 concentrations of the compounds, separated by a log unit, over a full range of the agonist (0.005-5000 nM). cAMP levels were measured in the cell lysates after appropriate dilution. Nonlinear regression analysis with Prism Graph-Pad software was used for Schild analysis and to obtain EC50 values. pA2 values were derived from the Schild plot of the data.

[6] = target: T4, MC1-R; assay: Competitive inhibition assay using [I125]-NDP-α-MSH, MC1-R membranes; format: binding, mouse
T4 construct: other: 1 μM compound
Experimental: as §1, §2

[7] = MC4-R membranes, Table 1, read-out: Ki (nM) I125-NPD-α-MSH
[8] = read-out: Ki (nM) (NDP-α-MSH) MC4-R
[9] = MC4-R membranes, Table 1, read-out: Ki (nM) I125-AgRP
[10] = cAMP assay, read-out: EC50 (nM) at MC4-R
[11] = MC4-R, Table 1 in μM, read-out: EC50

Row | Compound | Ki [1] | Ki [2, 7] | Ki [2, 8] | Ki [3] | Inhibition at 1 μM (AgRP) MC4-R [4] | Ki [4, 9] | Ki ([4]; read-out: Ki (nM) (AgRP) MC4-R) | pA2 (M) ([5]; MC4-R antagonists, Table 1) | functional status (pAg, Ag, Antag, Inactive) ([5]; MC4-R, Table 1) | pA2 value at MC4-R ([5]; Schild plot vs NDP-α-MSH) | functional status at MC4-R ([5]; cAMP assay) | attenuation of binding of α-MSH and AgRP to MC4-R [2] | EC50 ([5]; MC4-R, Table 1, read-out: EC50) | intrinsic activity at MC4-R [5] | EC50 [5, 10] | Ki [6] | Inhibition at 1 μM (NDP-α-MSH) MC1-R ([6]; 1 μM compound) | EC50 [5, 11]
1 | N=C(N)NCCC[C@H]1C(=O)N2C(CC[C@@H]2COc2ccc3ccccc3c2)N1C(=O)[C@@H](Cc1ccc(Cl)cc1Cl)NC(=O)[C@@H]1Cc2ccccc2CN1 (stereo partly drawn) [Example 23, (S)-1,2,3,4-Tetrahydro-isoquinoline-3-carboxylic acid {(R)-1-(2,4-dichloro-benzyl)-2-[(2S,5R)-2-(3-guanidino-propyl)-5-(naphthalen-2-yloxymethyl)-3-oxo-hexahydro-pyrrolo[1,2-a]imidazol-1-yl]-2-oxo-ethyl}-amide] | 42 nM | 1 nM | 1 nM | 26 nM | 100% | 1.2 nM | 1.2 nM | 8.086 | Antag (“Antag” means antagonist) | 8.0 | antagonist | – | – | – | – | – | – | –
2 | 7′-amino-heptanoyl-Ser(Bzl)-D-Phe(4-Cl)-Arg-S-(−)-1-(1-naphthyl)ethylamide [Example 17] | 125 nM | 7 nM | 7 nM | 313 nM | 100% | 0.6 nM | 0.6 nM | – | pAg (“pAg” means partial agonist) | – | – | attenuate the binding of both α-MSH and AgRP to MC4-R | 17 nM | 0.3 | 17 nM | – | – | –
3 | NH2—(CH2)6—C(═O)-Ser(Bzl)-D-Phe(4-Cl)-Arg-Trp-Asp-Phe-NH2 [Example 15] | 76 nM | 5 nM | 5 nM | 405 nM | 95% | 0.6 nM | 0.6 nM | – | pAg (“pAg” means partial agonist) | – | – | attenuate the binding of both α-MSH and AgRP to MC4-R | 283 nM | 0.5 | 238 nM | 242 nM | 38% | –
4 | 2-naphthylacetyl-1-amino-1-cyclohexane-carbonyl-D-Phe(4-Cl)-Arg-Trp-NH2 [Example 25] | 453 nM | 40 nM | 40 nM | 300 nM | 91% | 50 nM | 50 nM | – | pAg (“pAg” means partial agonist) | – | partial agonist (intrinsic activity between 0.1 (10%) and 0.7 (70%) is classified as a partial agonist) | attenuate the binding of both α-MSH and AgRP to MC4-R | – | 0.2 | > 1000 nM | – | – | > 1000 nM
5 | Heptanoyl-T(Bn)[dPhe(4-Cl)]RW-NH2 [Example 24] | 374 nM | 21 nM | 21 nM | 292 nM | 90% | 69 nM | 69 nM | – | pAg (“pAg” means partial agonist) | – | – | attenuate the binding of both α-MSH and AgRP to MC4-R | – | 0.4 | > 1000 nM | – | – | > 1000 nM
